Columns and labels:
Papayas ‘Golden’ [1] = assay: Example 1: percentage of fruits with ideal internal pulp firmness (2.5-7.0 lbf); assay type: in vivo, papaya; conditions: 100 ppb of MCP, ideal = between 2.5 and 7.0 lbf
Procedure: Papayas ‘Golden’ were harvested in Linhares—Espírito Santo—Brazil. The harvested fruits were packed in MAP Bags and put in cardboard boxes.
(§1) The appropriate weight of papayas was placed in each bag after harvest. Bags were placed in the same cardboard boxes used to export the fruits. Papayas then were cold stored at (11° C.) at the Laboratory.
(§2) The Test Protocol that was used was as follows. 36 MAP bags were packed. Each bag held approximately 3.8 kg (8.4 lb) of papayas. One such bag was packed in each cardboard box. Total weight of papayas in MAP bags was approximately 137 kg. Approximately 91 kg of papayas were placed into cardboard boxes identical to those used for the MAP bags.
(§3) The MAP-packaged papayas were packaged as follows: Nine fruits, approximately 3.8 kg were carefully placed into microperforated bags, and the bags were sealed by twisting the open side of the bag, folding down the twisted end, and placing a rubber band around the twisted and folded end of the bag.
All papayas were kept at cold temperature (11° C.) during 27 days and after that the fruits (packed in MAP bags or not) were put in room temperature (22° C.) during 8 days.
One day after harvest, when the papayas had around 25 lbf of average firmness, each treatment set was marked, placed in a hermetical chamber at cold temperature (11° C.). All chambers were of equal size and packed the same way. Treatment was for 12 hours. In the chambers for the 3 “MCP” treatment groups, at the beginning of the treatment period, SmartFresh™ were placed in the chamber. The amount of SmartFresh™ was chosen to achieve the indicated concentration of 1-methylcyclopropene in the atmosphere of the chamber.
(§4) For the Pulp Firmness evaluation two measurements where done, one for External Firmness and another for Internal Firmness. For External Firmness, the papayas had the skin removed with a peeler and the pulp firmness was measured with a Firmness Texture Analyzer (FTA) with a probe of 8 mm. For Internal Firmness, the papayas were cut transversally and a measurement close to the center of the fruit was taken with the FTA.
(§5) The desirable internal pulp firmness for consumption of papayas is between 2.5 and 7.0 lbf. The percentage of fruits with internal pulp firmness between 2.5 and 7.0 lbf was calculated.

Papayas ‘Golden’ [2] = assay: Example 2 (yellow stage): papaya skin color rating; assay type: in vivo; conditions: for Skin color ratings: 500 ppb of MCP, scale 1 green to 5 yellow
Procedure: (§6) A similar test to Example 1 but papayas are tested during their yellow stage. Papayas ‘Golden’ were harvested in Linhares—Espírito Santo—Brazil. The fruits were packed in MAP Bags and put in cardboard boxes.
(§7) The fruits were first left at room temperature during 3 days to reach yellow maturity stage.
(§8) After that the appropriate weight of papayas was placed in each bag after harvest. Bags were placed in the same cardboard boxes used to export the fruits. Papayas then were cold stored at (11° C.) at the Laboratory.
as §2, with “18” for “36”, “68” for “137”, “68” for “91”
as §3
(§9) All papayas were kept at cold temperature (11° C.) during 26 days and after that the fruits (packed in MAP bags or not) were put in room temperature (22° C.) during 8 days.
(§10) After the 3 days for maturation at room temperature, when the papayas had around 5 lbf of average firmness, each treatment set was marked, placed in a hermetical chamber at cold temperature (11° C.). All chambers were of equal size and packed the same way. Treatment was for 12 hr. In the chambers for the 2 “MCP” treatment groups, at the beginning of the treatment period, SmartFresh™ were placed in the chamber. The amount of SmartFresh™ was chosen to achieve the indicated concentration of 1-methylcyclopropene in the atmosphere of the chamber.
(§11) Evaluation for skin color and firmness was as follows. Day “zero” was the day the papayas were removed from the chamber and placed in storage.
(§12) The Papaya Skin Color was rated with the following scale: 1: green; 2: approximately 25%; 3: approximately 50% colored; 4: approximately 75% colored; 5: yellow.

Papayas ‘Golden’ [3] = assay: Example 2 (yellow stage): percentage of fruits with ideal internal pulp firmness (2.5-7.0 lbf); assay type: in vivo, papaya; conditions: 500 ppb of MCP, ideal = between 2.5 and 7.0 lbf
Procedure: as §6, §7, §8
as §2, with “18” for “36”, “68” for “137”, “68” for “91”
as §3, §9, §10
as §4, with “were” for “where”
as §5

Papayas ‘Golden’ [4] = assay: Example 3: papaya skin color rating, MAP bags with different perforations; assay type: in vivo; conditions: for Skin color ratings: 100 ppb of MCP, scale 1 green to 5 yellow
Procedure: Papayas ‘Golden’ were harvested in Linhares—Espírito Santo—Brazil. The fruits were packed in MAP Bags and put in cardboard boxes.
as §1
as §2, with “40” for “36”, “One of” for “One”, “152” for “137”, “8” for “91”
as §3, with “kg,” for “kg”, “MAP-bags,” for “bags,”
All papayas were kept at cold temperature (11° C.) during 14 days and after that the fruits (packed in MAP bags or not) were put in room temperature (24° C.) during 5 days.
One day after harvest, when the papayas had around 30 lbf of average firmness, each treatment set was marked and placed in a hermetical chamber at cold temperature (11° C.). All chambers were of equal size and packed the same way. Treatment was for 12 hours.
In the chambers, SmartFresh™ was placed at the beginning of the treatment period for the 5 “MCP” treatment groups. The amount of SmartFresh™ was chosen to achieve the indicated concentration of 1-methylcyclopropene in the atmosphere of the chamber.
as §11, §12

[5] = MAP bag, 26 days at 11° C. then 0 days @ 22° C.
[6] = MAP bag, 26 days at 11° C. then 4 days @ 22° C.
[7] = MAP bag, 26 days at 11° C. then 8 days @ 22° C.
[8] = No Bag, 26 days at 11° C. then 0 days @ 22° C.
[9] = No Bag, 26 days at 11° C. then 4 days @ 22° C.
[10] = No Bag, 26 days at 11° C. then 8 days @ 22° C.

CC1=CC1 [MCP, 1-methylcyclopropene]
Percentage of fruits with ideal internal pulp firmness (Papayas ‘Golden’ [1]; MAP bag, 27 days at 11° C. then 0 days @ 22° C.): 52.38% | Percentage of fruits with ideal internal pulp firmness (Papayas ‘Golden’ [1]; MAP bag, 27 days at 11° C. then 4 days @ 22° C.): 44.44% | Percentage of fruits with ideal internal pulp firmness (Papayas ‘Golden’ [1]; MAP bag, 27 days at 11° C. then 8 days @ 22° C.): 13.88% | Percentage of fruits with ideal internal pulp firmness (Papayas ‘Golden’ [1]; No Bag, 27 days at 11° C. then 0 days @ 22° C.): 1.19% | Percentage of fruits with ideal internal pulp firmness (Papayas ‘Golden’ [1]; No Bag, 27 days at 11° C. then 4 days @ 22° C.): 11.11% | Percentage of fruits with ideal internal pulp firmness (Papayas ‘Golden’ [1]; No Bag, 27 days at 11° C. then 8 days @ 22° C.): 58.33% | papayas color, in words (Papayas ‘Golden’ [2]; 1-MCP alone (no MAP)): did not hold the papayas color | Skin color ratings (Papayas ‘Golden’ [2]; [5]): 2.18 | Skin color ratings (Papayas ‘Golden’ [2]; [6]): 3.62 | Skin color ratings (Papayas ‘Golden’ [2]; [7]): 4.88 | Skin color ratings (Papayas ‘Golden’ [2]; [8]): 2.70 | Skin color ratings (Papayas ‘Golden’ [2]; [9]): 4.91 | Skin color ratings (Papayas ‘Golden’ [2]; [10]): 5.00 | Percentage of fruits with ideal internal pulp firmness (Papayas ‘Golden’ [3]; [5]): 77.08% | Percentage of fruits with ideal internal pulp firmness (Papayas ‘Golden’ [3]; [6]): 28.57% | Percentage of fruits with ideal internal pulp firmness (Papayas ‘Golden’ [3]; [7]): 0.00% | Percentage of fruits with ideal internal pulp firmness (Papayas ‘Golden’ [3]; [8]): 60.87% | Percentage of fruits with ideal internal pulp firmness (Papayas ‘Golden’ [3]; [9]): 12.90% | Percentage of fruits with ideal internal pulp firmness (Papayas ‘Golden’ [3]; [10]): 0.00% | papayas color, in words (Papayas ‘Golden’ [4]; 1-MCP alone (no MAP)): did not hold the papayas color | Skin color ratings (Papayas ‘Golden’ [4]; 24 Perf. MAP bag, 14 days at 11° C. then 0 days @ 24° C.): 1.60 | Skin color ratings (Papayas ‘Golden’ [4]; 24 Perf. MAP bag, 14 days at 11° C. then 3 days @ 24° C.): 2.04 | Skin color ratings (Papayas ‘Golden’ [4]; 24 Perf. MAP bag, 14 days at 11° C. then 5 days @ 24° C.): 3.75 | Skin color ratings (Papayas ‘Golden’ [4]; 48 Perf. MAP bag, 14 days at 11° C. then 0 days @ 24° C.): 1.96 | Skin color ratings (Papayas ‘Golden’ [4]; 48 Perf. MAP bag, 14 days at 11° C. then 3 days @ 24° C.): 3.02 | Skin color ratings (Papayas ‘Golden’ [4]; 48 Perf. MAP bag, 14 days at 11° C. then 5 days @ 24° C.): 4.52 | Skin color ratings (Papayas ‘Golden’ [4]; 90 Perf. MAP bag, 14 days at 11° C. then 0 days @ 24° C.): 1.71 | Skin color ratings (Papayas ‘Golden’ [4]; 90 Perf. MAP bag, 14 days at 11° C. then 3 days @ 24° C.): 3.18 | Skin color ratings (Papayas ‘Golden’ [4]; 90 Perf. MAP bag, 14 days at 11° C. then 5 days @ 24° C.): 4.36 | Skin color ratings (Papayas ‘Golden’ [4]; 180 Perf. MAP bag, 14 days at 11° C. then 0 days @ 24° C.): 1.73 | Skin color ratings (Papayas ‘Golden’ [4]; 180 Perf. MAP bag, 14 days at 11° C. then 3 days @ 24° C.): 4.13 | Skin color ratings (Papayas ‘Golden’ [4]; 180 Perf. MAP bag, 14 days at 11° C. then 5 days @ 24° C.): 4.84 | Skin color ratings (Papayas ‘Golden’ [4]; No Bag, 14 days at 11° C. then 0 days @ 24° C.): 1.82 | Skin color ratings (Papayas ‘Golden’ [4]; No Bag, 14 days at 11° C. then 3 days @ 24° C.): 4.11 | Skin color ratings (Papayas ‘Golden’ [4]; No Bag, 14 days at 11° C. then 5 days @ 24° C.): 4.96 | skin coloring delay and external pulp firmness retention, in words (Papayas ‘Golden’ [4]; combination of 1-MCP and MAP bag versus any treatment alone): synergistic effect
